Where two headings read alike, the source gives them in different places.
Tests used:
FGFR4 = FGFR4 (Homo sapiens (Human), UniProt P22455); assay: FGFR Enzymatic Assay (FRET, peptide phosphorylation), FGFR4
FGFR3 = FGFR3 (Homo sapiens (Human), UniProt P22607); assay: FGFR Enzymatic Assay (FRET, peptide phosphorylation), FGFR3; format: biochemical; details: pre-incubated for 4 hours; ATP 140 μM
FGFR1 = FGFR1 (Homo sapiens (Human), UniProt P11362); assay: FGFR Enzymatic Assay (FRET, peptide phosphorylation), FGFR1; details: read-out: FGFR1 IC50; pre-incubated for 4 hours; ATP 210 uM
FGFR2 = FGFR2 (Homo sapiens (Human), UniProt P21802); assay: FGFR Enzymatic Assay (FRET, peptide phosphorylation), FGFR2; details: read-out: FGFR2 IC50; pre-incubated for 4 hours; ATP 100 uM
[1] = read-out: FGFR4 IC50, pre-incubated for 4 hours, ATP 600 uM

Sequence of FGFR3 (P22607 23-806): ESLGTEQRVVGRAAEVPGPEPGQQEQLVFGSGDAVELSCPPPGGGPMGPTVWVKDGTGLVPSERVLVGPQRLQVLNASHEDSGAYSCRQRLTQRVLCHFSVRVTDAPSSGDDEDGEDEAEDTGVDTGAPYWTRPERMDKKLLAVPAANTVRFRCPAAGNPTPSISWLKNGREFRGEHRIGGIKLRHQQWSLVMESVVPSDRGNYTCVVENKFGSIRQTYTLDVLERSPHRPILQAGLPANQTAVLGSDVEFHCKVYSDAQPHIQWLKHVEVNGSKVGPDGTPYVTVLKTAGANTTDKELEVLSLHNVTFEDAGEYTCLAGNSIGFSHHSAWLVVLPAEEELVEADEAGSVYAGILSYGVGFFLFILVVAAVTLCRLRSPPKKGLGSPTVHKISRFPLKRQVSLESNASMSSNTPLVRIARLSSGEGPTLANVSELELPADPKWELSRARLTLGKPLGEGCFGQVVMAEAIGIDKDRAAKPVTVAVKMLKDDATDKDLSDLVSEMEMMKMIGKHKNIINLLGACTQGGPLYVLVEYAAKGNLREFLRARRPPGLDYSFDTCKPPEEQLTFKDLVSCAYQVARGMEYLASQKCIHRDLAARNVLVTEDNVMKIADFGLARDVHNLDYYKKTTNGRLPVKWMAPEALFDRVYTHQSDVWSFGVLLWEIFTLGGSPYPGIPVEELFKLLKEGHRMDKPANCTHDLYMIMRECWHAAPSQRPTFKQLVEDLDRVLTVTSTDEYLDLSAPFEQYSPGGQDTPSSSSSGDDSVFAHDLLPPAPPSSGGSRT
Sequence of FGFR4 (P22455 22-802): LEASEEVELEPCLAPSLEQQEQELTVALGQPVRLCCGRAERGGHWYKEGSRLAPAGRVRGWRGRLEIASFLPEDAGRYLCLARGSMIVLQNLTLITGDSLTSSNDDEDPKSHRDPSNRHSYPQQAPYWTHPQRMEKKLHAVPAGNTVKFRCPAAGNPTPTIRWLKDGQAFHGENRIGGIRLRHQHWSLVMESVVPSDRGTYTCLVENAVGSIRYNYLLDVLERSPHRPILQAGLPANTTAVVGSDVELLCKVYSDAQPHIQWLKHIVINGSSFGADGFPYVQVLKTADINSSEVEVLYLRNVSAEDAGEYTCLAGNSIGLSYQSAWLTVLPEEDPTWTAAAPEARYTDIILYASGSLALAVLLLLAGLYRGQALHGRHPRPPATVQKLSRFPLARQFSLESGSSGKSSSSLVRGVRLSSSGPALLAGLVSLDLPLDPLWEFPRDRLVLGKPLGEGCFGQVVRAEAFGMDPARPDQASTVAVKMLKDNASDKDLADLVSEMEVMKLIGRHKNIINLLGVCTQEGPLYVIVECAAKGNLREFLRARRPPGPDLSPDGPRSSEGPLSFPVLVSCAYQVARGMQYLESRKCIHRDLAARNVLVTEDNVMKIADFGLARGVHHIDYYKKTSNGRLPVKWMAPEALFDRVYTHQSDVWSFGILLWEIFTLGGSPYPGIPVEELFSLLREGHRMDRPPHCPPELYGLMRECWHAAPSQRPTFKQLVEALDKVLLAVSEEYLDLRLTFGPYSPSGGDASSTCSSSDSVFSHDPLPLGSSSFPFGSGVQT
Sequence of FGFR1 (P11362 22-822): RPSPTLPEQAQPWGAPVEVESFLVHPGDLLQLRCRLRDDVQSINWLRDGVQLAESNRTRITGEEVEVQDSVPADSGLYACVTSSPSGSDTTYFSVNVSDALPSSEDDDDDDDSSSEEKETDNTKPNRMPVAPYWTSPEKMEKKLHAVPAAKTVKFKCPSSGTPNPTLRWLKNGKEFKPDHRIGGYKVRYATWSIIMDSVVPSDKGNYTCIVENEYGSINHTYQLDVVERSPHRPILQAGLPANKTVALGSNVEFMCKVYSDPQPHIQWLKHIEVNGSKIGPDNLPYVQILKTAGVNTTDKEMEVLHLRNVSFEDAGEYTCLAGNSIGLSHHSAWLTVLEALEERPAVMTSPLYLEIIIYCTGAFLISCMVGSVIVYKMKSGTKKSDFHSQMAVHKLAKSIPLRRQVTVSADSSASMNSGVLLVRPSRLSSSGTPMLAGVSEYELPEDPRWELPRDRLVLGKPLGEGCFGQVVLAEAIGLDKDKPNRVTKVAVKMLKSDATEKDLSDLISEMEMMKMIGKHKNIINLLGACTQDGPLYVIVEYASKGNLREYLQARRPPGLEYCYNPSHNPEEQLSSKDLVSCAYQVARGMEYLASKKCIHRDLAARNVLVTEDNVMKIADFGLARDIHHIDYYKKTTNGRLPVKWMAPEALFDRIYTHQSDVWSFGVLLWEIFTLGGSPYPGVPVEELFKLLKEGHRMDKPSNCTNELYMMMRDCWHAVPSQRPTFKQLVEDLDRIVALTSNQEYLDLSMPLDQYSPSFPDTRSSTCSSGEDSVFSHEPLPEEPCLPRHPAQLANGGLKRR
Sequence of FGFR2 (P21802 22-821): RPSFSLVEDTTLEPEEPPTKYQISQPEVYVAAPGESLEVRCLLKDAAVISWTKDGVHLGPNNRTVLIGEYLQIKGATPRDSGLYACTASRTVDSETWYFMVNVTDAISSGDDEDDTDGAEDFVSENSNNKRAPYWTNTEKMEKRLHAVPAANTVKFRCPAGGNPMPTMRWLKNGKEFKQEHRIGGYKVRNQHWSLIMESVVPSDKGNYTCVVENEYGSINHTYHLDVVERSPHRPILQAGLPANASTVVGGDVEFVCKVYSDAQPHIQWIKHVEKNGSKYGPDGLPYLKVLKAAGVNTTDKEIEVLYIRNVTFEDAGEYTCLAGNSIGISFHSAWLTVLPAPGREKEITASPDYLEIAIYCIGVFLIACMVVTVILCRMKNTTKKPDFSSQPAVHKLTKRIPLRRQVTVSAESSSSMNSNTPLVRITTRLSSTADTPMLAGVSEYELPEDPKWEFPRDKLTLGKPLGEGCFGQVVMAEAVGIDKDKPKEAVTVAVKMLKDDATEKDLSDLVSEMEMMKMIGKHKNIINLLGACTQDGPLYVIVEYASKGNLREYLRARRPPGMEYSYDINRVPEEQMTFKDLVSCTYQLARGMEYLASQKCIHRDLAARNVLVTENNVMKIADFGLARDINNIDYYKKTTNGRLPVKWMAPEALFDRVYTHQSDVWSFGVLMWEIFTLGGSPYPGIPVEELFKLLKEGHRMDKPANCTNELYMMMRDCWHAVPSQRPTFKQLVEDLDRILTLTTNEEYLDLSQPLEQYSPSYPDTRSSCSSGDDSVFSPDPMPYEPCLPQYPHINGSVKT

SMILES | IC50 (FGFR4; read-out: FGFR4 IC50, pre-incubated for 5 to 10 minutes, ATP 600 uM) [nM] | IC50 (FGFR4; [1]) [nM] | IC50 (FGFR3) [nM] | IC50 (FGFR1) [nM] | IC50 (FGFR2) [nM] | IC50 (FGFR4) [nM]
C=CC(=O)NCc1cc2c(cn1)CN(c1c(F)c(OC)cc(OC)c1F)C(=O)C21CC1 [Example 1, N-{[2′-(2,6-difluoro-3,5-dimethoxyphenyl)-3′-oxo-2′,3′-dihydro-1′H-spiro[cyclopropane-1,4′-[2,7]naphthyridin]-6′-yl]methyl}acrylamide] | < 10 | < 10 |  |  |  | 
C=CC(=O)NCc1cc2c(cn1)CN(c1c(F)c(OC)cc(OC)c1F)C(=O)N2c1ccccc1 [Example 6, N-((3-(2,6-difluoro-3,5-dimethoxyphenyl)-2-oxo-1-phenyl-1,2,3,4-tetrahydropyrido[4,3-d]pyrimidin-7-yl)methyl)acrylamide] |  |  | > 200 | > 200 | > 200 | 10 to 30
C=CC(=O)NCc1cc2c(cn1)CN(c1c(F)c(OC)cc(OC)c1F)C(=O)N2[C@H]1CCOC1 [Example 8, (S)—N-((3-(2,6-difluoro-3,5-dimethoxyphenyl)-2-oxo-1-(tetrahydrofuran-3-yl)-1,2,3,4-tetrahydropyrido[4,3-d]pyrimidin-7-yl)methyl)acrylamide] |  | < 10 | > 200 | > 200 | > 200 | 
C=CC(=O)NCc1cc2c(cn1)CN(c1c(F)c(OC)cc(OC)c1F)C(=O)N2C1CC(F)(F)C1 [Example 9, N-((3-(2,6-difluoro-3,5-dimethoxyphenyl)-1-(3,3-difluorocyclobutyl)-2-oxo-1,2,3,4-tetrahydropyrido[4,3-d]pyrimidin-7-yl)methyl)acrylamide] |  |  | > 200 | > 200 | > 200 | 10 to 30
C=CC(=O)NCc1cc2c(cn1)CN(c1c(F)c(OC)cc(OC)c1F)C(=O)N2C1CC1 [Example 10, N-((1-cyclopropyl-3-(2,6-difluoro-3,5-dimethoxyphenyl)-2-oxo-1,2,3,4-tetrahydropyrido[4,3-d]pyrimidin-7-yl)methyl)acrylamide] |  |  | > 200 | > 200 | > 200 | 10 to 30
C=CC(=O)NCc1cc2c(cn1)CN(c1c(F)c(OC)cc(OC)c1F)C(=O)N2CCOC [Example 11, N-((3-(2,6-difluoro-3,5-dimethoxyphenyl)-1-(2-methoxyethyl)-2-oxo-1,2,3,4-tetrahydropyrido[4,3-d]pyrimidin-7-yl)methyl)acrylamide] |  | < 10 | > 200 | > 200 | > 200 | 
C=CC(=O)NCc1cc2c(cn1)CN(c1c(F)c(OC)cc(OC)c1F)C(=O)N2CCC [Example 12, N-((3-(2,6-difluoro-3,5-dimethoxyphenyl)-2-oxo-1-propyl-1,2,3,4-tetrahydropyrido[4,3-d]pyrimidin-7-yl)methyl)acrylamide] |  | < 10 | > 200 | > 200 | > 200 | 
C=CC(=O)NCc1cc2c(cn1)CN(c1c(F)c(OC)cc(OC)c1F)C(=O)N2CC(F)F [Example 14, N-((3-(2,6-difluoro-3,5-dimethoxyphenyl)-1-(2,2-difluoroethyl)-2-oxo-1,2,3,4-tetrahydropyrido[4,3-d]pyrimidin-7-yl)methyl)acrylamide] |  | < 10 | > 200 | > 200 | > 200 | 
C=CC(=O)NCc1cc2c(cn1)CN(c1c(F)c(OC)cc(OC)c1F)C(=O)N2C(C)C [Example 15, N-((3-(2,6-difluoro-3,5-dimethoxyphenyl)-1-isopropyl-2-oxo-1,2,3,4-tetrahydropyrido[4,3-d]pyrimidin-7-yl)methyl)acrylamide] |  | < 10 | > 200 | > 200 | > 200 | 
C=CC(=O)NCc1cc2c(cn1)CN(c1c(F)c(OC)cc(OC)c1F)C(=O)N2Cc1cccnc1 [Example 17, N-((3-(2,6-difluoro-3,5-dimethoxyphenyl)-2-oxo-1-(pyridin-3-ylmethyl)-1,2,3,4-tetrahydropyrido[4,3-d]pyrimidin-7-yl)methyl)acrylamide] |  |  | > 200 | > 200 | > 200 | 10 to 30
C=CC(=O)NCc1cc2c(cn1)CN(c1c(F)c(OC)cc(OC)c1F)C(=O)N2C[C@H]1CCOC1 [Example 19, (R)—N-((3-(2,6-difluoro-3,5-dimethoxyphenyl)-2-oxo-1-((tetrahydrofuran-3-yl)methyl)-1,2,3,4-tetrahydropyrido[4,3-d]pyrimidin-7-yl)methyl)acrylamide] |  | < 10 | > 200 | > 200 | > 200 | 
C=CC(=O)NCc1cc2c(cn1)CN(c1c(F)c(OC)cc(OC)c1F)C(=O)N2C1CCOCC1 [Example 23, N-((3-(2,6-difluoro-3,5-dimethoxyphenyl)-2-oxo-1-(tetrahydro-2H-pyran-4-yl)-1,2,3,4-tetrahydropyrido[4,3-d]pyrimidin-7-yl)methyl)acrylamide] |  |  |  |  |  | 10 to 30
C=CC(=O)NCc1cc2c(cn1)CN(c1c(F)c(OC)cc(OC)c1F)C(=O)N2CC1CCN(C(=O)OC)CC1 [Example 33, methyl 4-((7-(acrylamidomethyl)-3-(2,6-difluoro-3,5-dimethoxyphenyl)-2-oxo-3,4-dihydropyrido[4,3-d]pyrimidin-1(2H)-yl)methyl)piperidine-1-carboxylate] |  | < 10 |  | > 200 | > 200 | 

Now from value to molecule:

IC50 (FGFR4; read-out: FGFR4 IC50, pre-incubated for 5 to 10 minutes, ATP 600 uM) [nM] | IC50 (FGFR4; [1]) [nM] | IC50 (FGFR3) [nM] | IC50 (FGFR1) [nM] | IC50 (FGFR2) [nM] | IC50 (FGFR4) [nM] | SMILES
 | < 10 | > 200 | > 200 | > 200 |  | C=CC(=O)NCc1cc2c(cn1)CN(c1c(F)c(OC)cc(OC)c1F)C(=O)N2CC [Example 2, N-((3-(2,6-difluoro-3,5-dimethoxyphenyl)-1-ethyl-2-oxo-1,2,3,4-tetrahydropyrido[4,3-d]pyrimidin-7-yl)methyl)acrylamide]
 |  | > 200 | > 200 | > 200 | 10 to 30 | C=CC(=O)NCc1cc2c(cn1)CN(c1c(F)c(OC)cc(OC)c1F)C(=O)N2c1cccnc1 [Example 3, N-((3-(2,6-difluoro-3,5-dimethoxyphenyl)-2-oxo-1-(pyridin-3-yl)-1,2,3,4-tetrahydropyrido[4,3-d]pyrimidin-7-yl)methyl)acrylamide]
 |  | > 200 | > 200 | > 200 | 10 to 30 | C=CC(=O)NCc1ncc2c(n1)C1(CC1)C(=O)N(c1c(F)c(OC)cc(OC)c1F)C2 [Example 4, N-((6′-(2,6-difluoro-3,5-dimethoxyphenyl)-7′-oxo-6′,7′-dihydro-5′H-spiro[cyclopropane-1,8′-pyrido[4,3-d]pyrimidine]-2′-yl)methyl)acrylamide]
 | < 10 | > 200 | > 200 | > 200 |  | C=CC(=O)NCc1cc2c(cn1)CN(c1c(F)c(OC)cc(OC)c1F)C(=O)C21CCCC1 [Example 5, N-((2′-(2,6-difluoro-3,5-dimethoxyphenyl)-3′-oxo-2′,3′-dihydro-1′H-spiro[cyclopentane-1,4′-[2,7]naphthyridine]-6′-yl)methyl)acrylamide]
 |  | > 200 | > 200 | > 200 | 10 to 30 | C=CC(=O)NCc1cc2c(cn1)CN(c1c(F)c(OC)cc(OC)c1F)C(=O)N2c1ccn(C)n1 [Example 7, N-((3-(2,6-difluoro-3,5-dimethoxyphenyl)-1-(1-methyl-1H-pyrazol-3-yl)-2-oxo-1,2,3,4-tetrahydropyrido[4,3-d]pyrimidin-7-yl)methyl)acrylamide]
 | < 10 |  | 30 to 200 |  |  | C=CC(=O)NCc1cc2c(cn1)CN(c1c(F)c(OC)cc(OC)c1F)C(=O)N2CC1CC1 [Example 13, N-((1-(cyclopropylmethyl)-3-(2,6-difluoro-3,5-dimethoxyphenyl)-2-oxo-1,2,3,4-tetrahydropyrido[4,3-d]pyrimidin-7-yl)methyl)acrylamide]
 |  |  | 30 to 200 |  | 10 to 30 | C=CC(=O)NCc1cc2c(cn1)CN(c1c(F)c(OC)cc(OC)c1F)C(=O)N2Cc1cccc(F)c1 [Example 16, N-((3-(2,6-difluoro-3,5-dimethoxyphenyl)-1-(3-fluorobenzyl)-2-oxo-1,2,3,4-tetrahydropyrido[4,3-d]pyrimidin-7-yl)methyl)acrylamide]
 | < 10 |  | 30 to 200 |  |  | C=CC(=O)NCc1cc2c(cn1)CN(c1c(F)c(OC)cc(OC)c1F)C(=O)N2Cc1cnn(C)c1 [Example 18, N-((3-(2,6-difluoro-3,5-dimethoxyphenyl)-1-((1-methyl-1H-pyrazol-4-yl)methyl)-2-oxo-1,2,3,4-tetrahydropyrido[4,3-d]pyrimidin-7-yl)methyl)acrylamide]
 | < 10 |  | 30 to 200 |  |  | C=CC(=O)NCc1cc2c(cn1)CN(c1c(F)c(OC)cc(OC)c1F)C(=O)N2C1CCCC1 [Example 28, N-((1-cyclopentyl-3-(2,6-difluoro-3,5-dimethoxyphenyl)-2-oxo-1,2,3,4-tetrahydropyrido[4,3-d]pyrimidin-7-yl)methyl)acrylamide]
 | < 10 | > 200 | 30 to 200 |  |  | C=CC(=O)NCc1cc2c(cn1)CN(c1c(F)c(OC)cc(OC)c1F)C(=O)N2CC(C)C [Example 29, N-((3-(2,6-difluoro-3,5-dimethoxyphenyl)-1-isobutyl-2-oxo-1,2,3,4-tetrahydropyrido[4,3-d]pyrimidin-7-yl)methyl)acrylamide]
 | < 10 | > 200 | 30 to 200 |  |  | C=CC(=O)NCc1cc2c(cn1)CN(c1c(F)c(OC)cc(OC)c1F)C(=O)N2CC1CCC1 [Example 30, N-((1-(cyclobutylmethyl)-3-(2,6-difluoro-3,5-dimethoxyphenyl)-2-oxo-1,2,3,4-tetrahydropyrido[4,3-d]pyrimidin-7-yl)methyl)acrylamide]

Reference: patent US9890156B2, “Bicyclic heterocycles as FGFR4 inhibitors” (Incyte Corporation, priority 2015, dated 2018)
